Laboratory results taken from publication PMC11676734, “Novel Cyclic Peptide–Drug Conjugate P6-SN38 Toward Targeted Treatment of EGFR Overexpressed Non-Small Cell Lung Cancer” (Pharmaceutics, 2024).
pIC50: −log10 of the molar value. Positions of bridges follow the written chain, without caps; N, C: chain ends. Residues, ends and D or L forms follow the SMILES beside them. *: point of attachment. X1 = CCc1c2c(nc3ccc(O)cc13)-c1cc3c(c(=O)n1C2)COC(=O)[C@@]3(CC)OC(=O)CCC(=O)*; GABA = NCCCC(=O)O

Tests used:
H1299 cells [1] = experiment: Apoptosis assay, Annexin V-FITC/PI flow cytometry; format: cell-based; conditions: 2.5 µM, 6 h pre-treatment, wash, mean ± SD; for apoptotic rate / late-stage apoptosis rate: 24 h; for apoptosis / late apoptosis rate: 48 h
Experimental: H1299 cells were seeded at the concentration of 5 × 10^4 cells/mL in the RPMI 1640 growth medium and incubated in 6-well plates at 37 °C under 5% CO2. The next day, the medium was removed, and P6-SN38, or free SN38 (2.5 µM), in fresh medium was added and incubated for 6 h. Then, the medium was removed by washing out, fresh medium was added, and the plates were incubated for an additional 24 and 48 h. The cells were collected with 0.25% trypsin/EDTA solution and washed with PBS twice at 1500 rpm for 5 min. After that, Annexin-FITC (5 µM) and propidium Iodide (PI, 5 µM) were added (both from Abcam, Cambridge, UK). The cells were incubated for 15 min in the dark, and the samples (2 × 10^4 cells) were analyzed by flow cytometry.
SN38, a potent topoisomerase I inhibitor, disrupts DNA replication, leading to cell cycle arrest and apoptosis. To evaluate and compare the effects of peptide-bound SN38 (P6-SN38) and free SN38 on DNA damage and cell cycle distribution (Section 3.4), H1299 cells were pre-treated with both compounds at a concentration of 2.5 µM for 6 h, followed by washing and continued incubation for 24 or 48 h (Figure 3).
Figure 3 Apoptosis of H1299 cells estimated through cell survival percentage by binding with annexin V-FITC. H1299 cells were pre-incubated with P6-SN38 and SN38 as described in Section 2.6. Cells were stained with annexin and PI and analyzed by flow cytometry; * p < 0.05, *** p < 0.001, **** p < 0.0005. “ns” means non-significant.

H1299 (EGFR+) tumor = experiment: In vivo tumor growth inhibition, H1299 (EGFR+) xenograft; set-up: species or system NOD/SCID (nude) mice; conditions: 3 times, N = 4
Experimental: (§1) Animal protocols were approved by the Institutional Animal Care and Use Committee at Ariel University. NOD/SCID (nude) mice were injected with H1299 in the right flank and K562 cells in the left flank (10^6 cells each), so that each mouse developed dual H1299 and K562 xenografts.
(§2) When tumors reached~50 mm^3, mice were injected via tail vein (i.v.).
(§3) The mice’s weight and tumor volumes were measured every 2 days. The tumor sizes were measured by using the hands-on digital caliper method, and the tumor volumes were calculated according to the Formula (1). Tumor volume (mm^3) = 0.5 × Tumor Length × Tumor Width^2(1)
(§4) The resected tumors are shown in (C). N = 4 in each group. * p < 0.05, ** p < 0.005, *** p < 0.001, **** p < 0.0001.

[2] = Mice body weight during efficacy study; format: in vivo, NOD/SCID (nude) mice; conditions: i.v. once a week, 3 times; P6-SN38 10 mg/kg, Erbitux 10 mg/kg, free SN38 3 mg/kg; 18 days; N = 4
Experimental: as §2, §3, §4

EGFR+ H1299 cells = experiment: XTT cell viability / cytotoxicity, H1299 cells; format: cell-based; conditions: 6 h pre-incubation, wash
Experimental: (§5) Cell proliferation in the presence of P6-SN38 was evaluated using a commercial XTT assay kit (Enhanced Cell Counting Kit 8 (WST-8/CCK8); Elabscience, Houston, TX, USA). A total of 10^4 cells per well were seeded in 96-well plates and incubated overnight in complete RPMI growth medium. After washing, the cells were cultured in 100 µL of fresh medium containing varying concentrations of free SN38 or PDC for 3 h and 6 h (pre-incubation). Following this, the cells were washed again and incubated for an additional 24, 48, and 72 h. The XTT reagent was then added to each well, and the plate was incubated for 2 h at 37 °C. For cytotoxicity analysis, absorbance was measured at 450 nm and 630 nm using a TECAN Infinite M200 ELISA reader (Citrine Solutions, Oranit, Israel). All assays were performed in triplicate, and each experiment was repeated three times.
(§6) Figure 2 Cell viability after 6 h of pre-incubation of EGFR+ H1299 (A) and EGFR− HEK293 (B) cell lines with P6-SN38 and SN38. H1299 and HEK293 cells were cultured in a 96-well plate and pre-incubated with six different concentrations (0.5, 2.5, 5, 10, 15, and 25 μM) of P6-SN38 or SN38 for 6 h, washed out, and incubated additionally for 24 h, 48 h, and 72 h. Cell viability was assessed using an XTT assay, with the viability of untreated control cells set at 100%. The viability of treated cells was expressed as a percentage relative to the control. Data are presented as the mean ± standard deviation (SD).

H1299 cells [3] = experiment: Cell cycle analysis, PI flow cytometry; format: cell-based; conditions: 2.5 µM, 6 h pre-treatment, in words
Experimental: Cell cycle analysis was conducted using a cell cycle detection kit (Biotopped, Huangshan, China). H1299 cells were seeded in 5 × 10^4 cells/mL concentration in the complete growth medium. (RPMI 1640) Incubation was performed in 6-well plates at 37 °C under 5% CO2. The next day, the medium was removed, and the fresh medium containing P6-SN38 or free SN38 (2.5 µM) was added and incubated for 6 h. Then, the medium was removed by washing, a fresh medium was added, and the cells were incubated for an additional 24 and 48 h. Then, the cells were trypsinized and washed with PBS twice at 1500 rpm for 5 min. Cells were fixed in 66% ethanol for 2 h. Then, cells were incubated with 0.2 mL buffer solution containing PI (25 μL) and RNase A (10 μL) after being rinsed with cold PBS (according to the manufacturer’s protocol). Finally, the cell cycle was analyzed by Beckman CytoFLEX FCM (Bio-Rad Laboratories, Inc., Rishon Le Zion, Israel).
To investigate whether the observed growth inhibition and apoptosis were mediated by cell cycle arrest, we examined the effects of P6-SN38 and free SN38 on cell cycle progression in NSCLC H1299 cells. The cells were pre-treated with the compounds for 6 h, followed by an additional 24 or 48 h incubation period (Figure 4A,B).
Figure 4 Cell cycle arrest analysis of treatment with SN38 and P6-SN38. Cell cycle distribution of H1299 cells detected by flow cytometry after 24 h (A) and 48 h (B) treatment with SN38 and P6-SN38 at 2.5 µM. A total of 1 × 10^6 cells were pre-incubated with P6-SN38 or SN38 for 6 h, followed by additional incubation for 24 h and 48 h. The cells were then stained with propidium iodide (PI) and analyzed by flow cytometry (C). The data in A and B are presented as the mean ± SD (n = 3). “ns” means non-significant. * p < 0.05, *** p < 0.001, **** p < 0.0005. “ns” means non-significant. TEXT PRINTED IN THE PICTURE: (C) 01-H1299_P6_24h-B9.fcs: %G1 : 6.76; %S : 52.1; %G2 : 40.6 | (C) 01-H1299_P6_48h-D8.fcs: %G1 : 9.76; %S : 47.2; %G2 : 40.6 | (C) 01-H1299_SN_24h-A9.fcs: %G1 : 0; %S : 39.4; %G2 : 54.0 | (C) 01-H1299_SN_48h-C8.fcs: %G1 : 9.66; %S : 61.4; %G2 : 27.8 DOUBTS OF THE COPYIST ABOUT THIS PICTURE: 01-H1299_P6_24h-B9.fcs, %G1: small print, 6.76 could be 8.76 or 6.78 / 01-H1299_P6_24h-B9.fcs, %G2: small print, 40.6 could be 40.8 / 01-H1299_P6_48h-D8.fcs, %G1: small print, 9.76 could be 9.78 / 01-H1299_P6_48h-D8.fcs, %G2: small print, 40.6 could be 40.8 / 01-H1299_SN_24h-A9.fcs, %S: small print, 39.4 could be 38.4 / 01-H1299_SN_48h-C8.fcs, %G1: small print, 9.66 could be 9.68 or 9.86 / 01-H1299_SN_48h-C8.fcs, %G2: small print, 27.8 could be 27.6 / The untreated samples (01-H1299_24h_UT-A6.fcs, 01-H1299_UT_48h-C6.fcs) were left out because they stand for no substance. The RMSD values were left out as fit statistics.

EGFR− HEK293 cells = experiment: XTT cell viability / cytotoxicity, HEK293 cells; format: cell-based; conditions: 6 h pre-incubation, wash; for effect on EGFR− HEK-293 cells: further incubation, in words; for pIC50: HEK293, XTT
Experimental: as §5, §6

K562 (EGFR−) tumor = experiment: In vivo tumor growth inhibition, K562 (EGFR−) xenograft; set-up: species or system NOD/SCID (nude) mice; conditions: 10 mg/kg i.v. once a week, 3 times
Experimental: as §1, §2, §3
Figure 6 In vivo effect of P6-SN38 conjugate in NSCLC model (10 mg/kg, once a week). […] The resected tumors are shown in (C). N = 4 in each group. * p < 0.05, ** p < 0.005, *** p < 0.001, **** p < 0.0001.

| Structure (SMILES) | apoptotic rate (H1299 cells [1]) [%] | late-stage apoptosis rate (H1299 cells [1]) [%] | apoptosis (H1299 cells [1]) [%] | late apoptosis rate (H1299 cells [1]) [%] | H1299 tumor eradication (H1299 (EGFR+) tumor; 10 mg/kg i.v. once a week, day 18) | mice weight loss, in words [2] | pIC50 (EGFR+ H1299 cells; 48 h incubation) | pIC50 (EGFR+ H1299 cells; 72 h incubation) | cell cycle phase of arrest (H1299 cells [3]; 24 h) | cell cycle phase of arrest (H1299 cells [3]; 48 h) | effect on EGFR− HEK-293 cells (EGFR− HEK293 cells) | pIC50 (EGFR− HEK293 cells; 48 h incubation) | pIC50 (EGFR− HEK293 cells; 72 h incubation) | effect on growth of K562 (EGFR−) tumors, in words (K562 (EGFR−) tumor; 18 days) | K562 tumor volume (K562 (EGFR−) tumor; day 18, initial ~50 mm^3, control 1772 ± 265, N = 4) [mm^3] | effect on tumor growth, in words (H1299 (EGFR+) tumor; i.v. once a week, Erbitux 10 mg/kg, free SN38 3 mg/kg, 18 days) |
| --- | --- | --- | --- | --- | --- | --- | --- | --- | --- | --- | --- | --- | --- | --- | --- | --- |
| CCc1c2c(nc3ccc(O)cc13)-c1cc3c(c(=O)n1C2)COC(=O)[C@@]3(CC)OC(=O)CCC(=O)NCCCC(=O)N[C@H]1CSSC[C@@H](C(N)=O)NC(=O)[C@H]([C@@H](C)CC)NC(=O)[C@H](Cc2ccc(O)cc2)NC(=O)[C@H](CO)NC(=O)CNC(=O)[C@@H]2CCCN2C(=O)[C@H](C(C)C)NC(=O)[C@H](Cc2c[nH]cn2)NC1=O [P6-SN38] ({X1-GABA}-CHVPGSYIC-NH2; disulfide 1-9) | 12.9 ± 4.2 | 14.1 ± 7.3 | 21.48 ± 9.90 | 25.32 ± 10.00 | eradicated completely in 3 out of 4 mice | minimal weight loss | 5.60 | 6.05 | both the S and G2/M phases | S/G2 phase arrest | nearly no effect | < 4.30 | < 4.30 | did not affect the growth | 1522 ± 561 |  |
| CCc1c2c(nc3ccc(O)cc13)-c1cc3c(c(=O)n1C2)COC(=O)[C@]3(O)CC [SN38] | 16.3 ± 6.4 | 15.2 ± 6.8 | 19.27 ± 5.11 | 26.80 ± 14.90 |  | significant weight loss | 6.10 | 6.30 | G2/M phase arrest | S/G2 phase arrest | active in both cell lines | 5.36 | 5.57 |  |  | non-specific tumor reduction |
